Measurements: patent publication US9132188B2, “Chemically Programmed Vaccination” (The Scripps Research Institute, priority 2009, dated 2015)

Tested on: CT26 tumors
Assay: Syngeneic colon cancer model, CT26 tumors in JW-KLH-immunized BALB/C mice
Assay type: in vivo
Settings: 200 μL i.p. days 2-17; compared with PBS
Experimental: FIG. 5 illustrates inhibition of tumor growth in syngenic mice mediated by adaptor-targeted antibodies. […] Mice (six per group) were treated between days 2 and 17 with 200 μL i.p. injections of PBS alone, 60 μg/mL SCS-873 in PBS, or 27.5 μg/mL SCS-397 in PBS. Mean tumor volumes±SD were determined at 3-day intervals from 12 to 30 days post-grafting. […] Mice (six per group) were treated between days 2 and 17 with 200 μL i.p. injections of PBS alone, 77 μg/mL cRGD-dk in PBS, or 42.5 μg/mL cRGD in PBS. Mean tumor volumes±SD were determined at 3-day intervals from 12 to 30 days post-grafting. […] Mean tumor volumes±SD were determined at 3-day intervals from 12 to 24 days post-grafting. […] Mean tumor volumes±SD were determined at 3-day intervals from 12 to 24 days post-grafting.
On day 65, JW-KLH-immunized BALB/C mice were sorted (6 groups with 6 animals each) to form matched anti-JW titer groups and were inoculated s.c. into right flanks with 0.1 mL (2×10^5 cells/mouse) of CT26 cell suspension in PBS (day 0 for tumor model). […] Tumor volumes of treated animals were measured over the skin in two dimensions using a slide caliper every third day starting on day 12, and the tumor volume was calculated according to the following formula, ½(width)^2×length. Toxicity was monitored by determining the body weight of mice once a week. […]

## cyclo(Arg-Gly-Asp-D-Phe-Lys) [cRGD]
  growth of CT26 tumors (in words): no more effective than treatment with PBS
